Source: publication PMC10791743, “Selective CK1α degraders exert antiproliferative activity against a broad range of human cancer cell lines” (Nature Communications, 2024)
Several values for one entry are separate records, joined by “and”; a condition that tells them apart may be missing. Equal entries are not always repeated. Entries after “also recorded” stand apart in the source; their conditions may differ.

Columns and labels:
[1] = molecular target: T1, CK1α-CRBN ternary complex (Homo sapiens, UniProt P48729+Q96SW2); assay: Live cell CK1α-CRBN ternary complex NanoBRET assay; assay type: cell-based
T1 construct: engineered by CRISPR/Cas9 to express endogenous CK1α (HEK293 cells) or IKZF1 (Jurkat cells) with a HiBiT tag; CS3023104 (cells)
Description: CSNK1A1CK1α-HiBiT HEK293 LgBiT stable cells weretransfected with a HaloTag-CRBN vector (Promega, Cat. #N269A) using Fugene HD (Promega, Cat. #E2311). […] Plates were incubated overnight at 37 °C with 5% CO2. On day 3, a dose–response curve was generated by performing 3-fold dilutions of each compound including a DMSO-only control in OptiMEM I Reduced Serum Medium, no phenol red supplemented with 4% FBS. Cells were treated with MG132 (Selleckchem, Cat. #S2619) for 30 min before being treated with the dilution series of compounds. Plates were incubated for 2 h at 37 °C with 5% CO2. After 2 h, plates were read using NanoBRET Nano-Glo substrate (Promega #N1573) on a GloMax Discover following the manufacturer’s instructions. No ligand controls were subtracted from each sample and normalized to the no compound DMSO control to obtain Fractional BRET values. EC50 values were calculated for each compound curve.

p21 = p21 immunoblotting in MOLM-13 cells; assay type: cell-based, human; conditions: for p21 quantified protein expression (western blot): 3 western blots
[2] = Liver microsomes stability assay, human; assay type: in vitro ADME
Description: page 31: using a REMS Autosampler (World Precision Instruments, Sarasota, […]1 cells were grown for 5 days to reach a consistent confluency level monitored by epithelial voltohmmeter to confirm the intactness of the confluent polarized monolayer. For transport experiments, each cultured monolayer on the 96-well plate was washed twice with a transport buffer (HBSS/25 mM […] The cell-based permeability assay was initiated by the addition of each compound solution (10 μmol/L) into inserts (apical side, A) or receivers (basolateral side, B). After incubated […] (if basal to apical permeability), and concentrations were assessed by UPLC/MS (Waters; Milford, MA). All compounds were tested in triplicates. The A→B (or B→A) apparent permeability coefficients (Papp) of each compound were calculated using the equation (3): […], where dQ/dt equals the flux of a drug across the monolayer, the parameters of A equals the surface area of total insert well, and C0 is the initial concentration of substrate in the donor compartment. The efflux ratio was determined by dividing the Papp in the B-A direction by the Papp in the A-B direction. […] NADPH regenerating agent solutions A and B (Corning GentestTM, Cat. No: 451220) were purchased from Discovery Labware (Woburn, MA). Mouse liver microsomes (CD-1, pooled, GibcoTM, Cat. No: MSMCPL) were obtained from Thermo Fisher Scientific (Fredrick, MD). Pooled human liver microsomes (mixed gender, Cat. No: E0630) were purchased from XenoTech (Lenexa, KS). Stock solutions of test compounds were prepared at 10 mM in DMSO. Sample preparation for microsomal stability was modified from Di's publications3,4. […] and 4 hours) by Labcyte Echo 650 acoustic dispenser (Beckman Coulter Life Sciences, Indianapolis, IN). All compounds were tested in triplicate per time point. […] Plasma stability assay5: The degradation of human or mouse plasma was assessed by monitoring the gradual reduction of the parent compound over specified time intervals (0, 3, 24, and 48 hours). […]

[3] = time course 0-8 hrs, relative to no treatment

T1 sequence (Q96SW2 whole entry): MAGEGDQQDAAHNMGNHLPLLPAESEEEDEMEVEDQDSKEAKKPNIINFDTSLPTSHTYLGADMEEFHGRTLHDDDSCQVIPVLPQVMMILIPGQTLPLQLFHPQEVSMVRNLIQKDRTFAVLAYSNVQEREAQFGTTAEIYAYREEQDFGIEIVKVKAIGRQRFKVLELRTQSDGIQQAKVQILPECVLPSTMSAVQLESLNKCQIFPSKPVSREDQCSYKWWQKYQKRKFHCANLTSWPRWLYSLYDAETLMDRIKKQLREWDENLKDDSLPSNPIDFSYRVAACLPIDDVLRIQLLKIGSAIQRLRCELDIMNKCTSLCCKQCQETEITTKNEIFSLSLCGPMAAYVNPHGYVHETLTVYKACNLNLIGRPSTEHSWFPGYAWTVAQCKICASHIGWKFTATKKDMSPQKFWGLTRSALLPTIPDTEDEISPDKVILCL
T1 sequence (P48729 whole entry): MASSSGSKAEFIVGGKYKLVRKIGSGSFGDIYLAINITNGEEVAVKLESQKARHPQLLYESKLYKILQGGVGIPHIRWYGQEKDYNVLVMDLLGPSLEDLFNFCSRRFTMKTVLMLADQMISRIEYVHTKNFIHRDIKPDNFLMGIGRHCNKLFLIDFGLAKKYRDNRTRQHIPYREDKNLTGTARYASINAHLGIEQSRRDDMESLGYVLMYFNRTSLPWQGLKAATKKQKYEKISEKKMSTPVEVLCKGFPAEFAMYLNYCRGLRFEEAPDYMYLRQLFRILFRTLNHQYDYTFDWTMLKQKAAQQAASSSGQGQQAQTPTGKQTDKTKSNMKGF
T1 sequence (Q16531 whole entry partner): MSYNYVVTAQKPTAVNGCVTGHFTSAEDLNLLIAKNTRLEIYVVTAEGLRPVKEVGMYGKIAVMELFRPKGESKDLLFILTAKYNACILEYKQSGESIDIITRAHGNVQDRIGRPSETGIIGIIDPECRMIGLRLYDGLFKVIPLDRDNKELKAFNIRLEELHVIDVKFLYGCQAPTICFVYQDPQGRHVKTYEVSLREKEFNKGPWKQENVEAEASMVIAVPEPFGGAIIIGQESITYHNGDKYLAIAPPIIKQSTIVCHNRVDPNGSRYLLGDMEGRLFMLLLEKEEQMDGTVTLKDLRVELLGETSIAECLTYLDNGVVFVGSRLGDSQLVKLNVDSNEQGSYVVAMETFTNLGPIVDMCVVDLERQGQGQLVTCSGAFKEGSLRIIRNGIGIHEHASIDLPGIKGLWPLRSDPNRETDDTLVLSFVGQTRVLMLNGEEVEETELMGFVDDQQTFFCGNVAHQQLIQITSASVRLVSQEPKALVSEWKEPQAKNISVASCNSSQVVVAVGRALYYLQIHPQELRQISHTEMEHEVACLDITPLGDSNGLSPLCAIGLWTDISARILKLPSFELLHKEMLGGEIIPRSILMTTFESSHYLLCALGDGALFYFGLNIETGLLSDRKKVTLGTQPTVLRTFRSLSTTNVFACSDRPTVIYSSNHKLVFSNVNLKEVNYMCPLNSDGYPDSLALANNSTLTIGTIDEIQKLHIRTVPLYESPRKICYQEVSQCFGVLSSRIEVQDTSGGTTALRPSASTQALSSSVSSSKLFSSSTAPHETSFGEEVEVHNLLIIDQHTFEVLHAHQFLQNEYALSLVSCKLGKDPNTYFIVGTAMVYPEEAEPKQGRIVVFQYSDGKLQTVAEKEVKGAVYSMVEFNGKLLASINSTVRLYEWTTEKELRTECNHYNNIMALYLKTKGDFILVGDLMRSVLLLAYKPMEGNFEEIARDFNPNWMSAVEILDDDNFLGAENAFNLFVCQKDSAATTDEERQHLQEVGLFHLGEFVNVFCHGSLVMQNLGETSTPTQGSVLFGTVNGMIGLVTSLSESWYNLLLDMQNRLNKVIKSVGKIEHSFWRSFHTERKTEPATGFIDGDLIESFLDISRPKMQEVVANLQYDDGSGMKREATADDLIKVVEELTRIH

Structure (SMILES) | CK1a: CRBN Ternary Complex NanoBRET Ratio ([1]; 0.111 uM) | CK1a: CRBN Ternary Complex NanoBRET Ratio, Normalized ([1]; 0.111 uM) | CK1a: CRBN Ternary Complex NanoBRET Ratio ([1]; 0.333 uM) | CK1a: CRBN Ternary Complex NanoBRET Ratio, Normalized ([1]; 0.333 uM) | CK1a: CRBN Ternary Complex NanoBRET Ratio ([1]; 1 uM) | CK1a: CRBN Ternary Complex NanoBRET Ratio, Normalized ([1]; 1 uM) | CK1a: CRBN Ternary Complex NanoBRET Ratio ([1]; 3 uM) | CK1a: CRBN Ternary Complex NanoBRET Ratio, Normalized ([1]; 3 uM) | CK1a: CRBN Ternary Complex NanoBRET Ratio ([1]; 10 uM, replicates) | CK1a: CRBN Ternary Complex NanoBRET Ratio, Normalized ([1]; 10 uM, replicates) | also measured
O=C1CCC(N2Cc3c(CNC(=O)c4ccc(F)cc4)cccc3C2=O)C(=O)N1 (stereo not drawn) [SJ7095] | 3.3 mBU and 3.11 mBU and 3.22 mBU and 2.76 mBU | 3.03 and 2.85 and 2.95 and 2.53 | 4.47 mBU and 5.14 mBU and 4.06 mBU and 4.1 mBU | 4.10 and 4.71 and 3.72 and 3.76 | 5.33 mBU and 5.06 mBU and 5.38 mBU and 4.31 mBU | 4.89 and 4.64 and 4.93 and 3.95 | 5.47 mBU and 7.05 mBU and 5.71 mBU and 6.74 mBU | 5.01 and 6.46 and 5.23 and 6.18 | 7.23 mBU and 6.62 mBU and 6.74 mBU and 6.49 mBU | 6.63 and 6.07 and 6.18 and 5.95 | p21 protein levels (p21; MOLM-13, increasing concentrations, 4 h): dose-dependent upregulation of p21
O=C1CCC(N2Cc3cc(Nc4noc5ccccc45)ccc3C2=O)C(=O)N1 (stereo not drawn) [SJ3149] | 3.47 mBU and 2.55 mBU and 2.79 mBU | 23.75 and 17.45 and 19.07 | 4.12 mBU and 3.68 mBU and 3.78 mBU | 28.17 and 25.18 and 25.82 | 4.59 mBU and 4.78 mBU and 4.4 mBU | 31.39 and 32.66 and 30.10 | 4.96 mBU and 4.79 mBU and 5.46 mBU | 33.90 and 32.75 and 37.33 | 5.57 mBU and 5.32 mBU and 5.78 mBU | 38.09 and 36.40 and 39.49 | half-life at 10 µM ([2]; both sexes, human, liver microsomes, pH 7.4, read-out: Microsome stability t1/2): > 10 h; Ternary complex formation (NanoBRET signal) ([1]; 2 h treatment): most robust complex formation; p21 induction, time course (p21; MOLM-13, 1 μM, 0-8 h): not present until 4 h; also recorded: does not occur until after 4 hours; p21 quantified protein expression (western blot) (p21; time 1 hr, relative to no treatment): 0.8518 and 1.28 and 0.8338; p21 quantified protein expression (western blot) (p21; time 2 hrs, relative to no treatment): 1.31 and 1.5551 and 1.213; p21 quantified protein expression (western blot) (p21; time 4 hrs, relative to no treatment): 4.341 and 2.673 and 4.158; p21 quantified protein expression (western blot) (p21; time 8 hrs, relative to no treatment): 4.765 and 2.907 and 5.628; IC50 (line fit, sigmoidal 4PL) of p21 expression versus time (p21; time course 0-8 hrs, X axis is time): 3.071; Bottom (line fit, sigmoidal 4PL) of p21 expression versus time (p21; [3]): 0.988; Top (line fit, sigmoidal 4PL) of p21 expression versus time (p21; [3]): 4.463
O=C1CCC(N2Cc3cc(Nc4noc5ccccc45)ccc3C2=O)C(=O)N1 (stereo not drawn) [SJ001043149-1] | – | – | – | – | – | – | – | – | – | – | Ke [2]: -0.00692; t(1/2) [2]: -100.22
